Experiment [1] has as its target 5-hydroxytryptamine receptor 2A (Homo sapiens) (UniProt P28223). In words: Antagonist activity at human 5-HT2A receptor assessed as inhibition of 5-HT-induced mobilization of internal calcium at 10 uM by FLIPR assay. In kind it is functional.
In experiment [2] the target is T1, Alpha-1A adrenergic receptor (Homo sapiens) (UniProt P35348).
T1 sequence (whole entry): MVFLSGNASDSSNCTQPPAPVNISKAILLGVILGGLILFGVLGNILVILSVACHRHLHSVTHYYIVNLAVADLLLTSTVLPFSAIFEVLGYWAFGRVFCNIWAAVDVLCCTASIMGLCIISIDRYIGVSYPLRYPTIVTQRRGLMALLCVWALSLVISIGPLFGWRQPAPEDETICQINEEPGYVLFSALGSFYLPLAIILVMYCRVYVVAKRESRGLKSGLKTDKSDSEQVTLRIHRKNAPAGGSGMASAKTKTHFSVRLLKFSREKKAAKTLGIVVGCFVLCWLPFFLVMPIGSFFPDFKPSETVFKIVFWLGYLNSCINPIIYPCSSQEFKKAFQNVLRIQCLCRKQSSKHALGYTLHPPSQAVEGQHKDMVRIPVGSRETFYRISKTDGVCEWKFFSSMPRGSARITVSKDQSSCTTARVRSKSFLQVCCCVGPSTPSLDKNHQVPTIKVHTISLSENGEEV
In words: Antagonist activity at alpha1A adrenergic receptor (unknown origin) assessed as inhibition of mobilization of internal calcium at 10 uM by FLIPR assay. The experiment is classed as functional.

The species entered for a further experiment is Homo sapiens. In words: Selectivity ratio of Ke for human 5-HT2A receptor to Ke for alpha1A adrenergic receptor (unknown origin).

5-hydroxytryptamine receptor 2A (Homo sapiens), sequence (P28223 whole entry): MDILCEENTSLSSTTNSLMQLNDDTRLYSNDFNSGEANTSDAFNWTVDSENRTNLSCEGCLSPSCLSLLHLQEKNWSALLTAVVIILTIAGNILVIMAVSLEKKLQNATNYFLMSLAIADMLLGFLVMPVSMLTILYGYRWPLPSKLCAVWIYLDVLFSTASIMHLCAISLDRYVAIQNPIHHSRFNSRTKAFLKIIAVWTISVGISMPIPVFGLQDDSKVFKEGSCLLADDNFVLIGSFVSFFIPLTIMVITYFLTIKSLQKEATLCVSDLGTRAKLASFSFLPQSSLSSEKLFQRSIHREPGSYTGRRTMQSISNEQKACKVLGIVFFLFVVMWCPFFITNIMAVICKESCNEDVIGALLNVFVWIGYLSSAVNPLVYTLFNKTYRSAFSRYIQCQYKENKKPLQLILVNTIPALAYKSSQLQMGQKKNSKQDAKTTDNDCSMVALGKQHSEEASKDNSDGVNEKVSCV

Turning to `COc1cc2c3c(c1OC)-c1cc4c(cc1C[C@H]3N(C)CC2)OCO4`, the Ke in experiment [1] turned out to be 946 nM; in experiment [2], 70 nM. Besides, the Ratio Ke in the experiment listed under Homo sapiens was 13.5.

Consider `COc1cc2c3c(c1OC)-c1cc4c(cc1CC3OCC2)OCO4` (stereo unspecified), for which the Ke in experiment [1] and in experiment [2] was > 3000 nM each time.

As for `C=CCc1cc2c3c(c1OC)-c1cc4c(cc1CC3N(C)CC2)OCO4` (stereo unspecified), the Ke in experiment [1] is 485 nM; in experiment [2] it was 566 nM. Also, the Ratio Ke in the experiment filed under Homo sapiens is 0.85.

Consider `COc1cc2c3c(c1OC)-c1cc4c(cc1C[C@@H]3N(C)CC2)OCO4`, for which the Ke was 657 nM in experiment [1] and 196 nM in experiment [2]. Also, the Ratio Ke in the experiment filed under Homo sapiens worked out at 3.4.

Consider `C=CCc1cc2c3c(c1OCC1CC1)-c1cc4c(cc1CC3N(C)CC2)OCO4` (stereo unspecified), for which the Ke was 963 nM in experiment [1] and > 3000 nM in experiment [2]. Further, the Ratio Ke in the experiment listed under Homo sapiens is < 0.32.

`CN1CCc2ccc(O)c3c2C1Cc1cc2c(cc1-3)OCO2` (stereo unspecified): the Ke was > 3000 nM in experiment [1] and 2950 nM in experiment [2].

Consider `C=CCc1cc2c3c(c1O)-c1cc4c(cc1CC3N(C)CC2)OCO4` (stereo unspecified), for which the Ke in experiment [1] and in experiment [2] was > 3000 nM each time.

As for `C=CCOc1ccc2c3c1-c1cc4c(cc1CC3N(C)CC2)OCO4` (stereo unspecified), the values for the Ke in experiment [1] and in experiment [2] were 47 nM and 744 nM, respectively. For the same molecule, in the experiment filed under Homo sapiens, the Ratio Ke worked out at 0.06.

Turning to `C=CCOc1c(CC=C)cc2c3c1-c1cc4c(cc1CC3N(C)CC2)OCO4` (stereo unspecified), the results for the Ke in experiment [1] and in experiment [2] were 1370 nM and > 3000 nM, respectively. In addition, the Ratio Ke in the experiment listed under Homo sapiens was < 0.45.

As to `C=CCOc1c(OC)cc2c3c1-c1cc4c(cc1CC3OCC2)OCO4` (stereo unspecified), the Ke in experiment [1] and in experiment [2] was > 3000 nM each time.

The values are drawn from ChEMBL document CHEMBL3232860, “Evaluation of structural effects on 5-HT(2A) receptor antagonism by aporphines: identification of a new aporphine with 5-HT(2A) antagonist activity” (Bioorg Med Chem Lett, 2014).
